Like-named read-outs stand apart in the source and are kept apart here.
Tests used:
[1] = biological target: human β3-AR (Homo sapiens, UniProt P13945); experiment: cAMP accumulation in CHO-K1 cells expressing human β3-AR; conditions: for EC50: EC50 β3-AR; for β3-AR selectivity vs β1-AR / β3-AR selectivity vs β2-AR: comparison between EC50 values; for cAMP activity at Cmax,u / cAMP activity at Cmin,u: from dose-response curve, β3-AR cells TF 0.025 μg/well;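 as to all read-outs here: CHO-K1 cells transiently transfected with a β-AR expression plasmid, cAMP assayed roughly 24 h post-transfection, values derived from agonist concentration–response curves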
Description: (§1) Chinese hamster ovary (CHO)-K1 cells (DS Pharma Biomedical Co., Ltd., Osaka, Japan) were cultured in Ham’s F-12 medium containing 10% fetal bovine serum under 5% CO2 at 37°C. For cAMP assay, 2×10^5 cells/mL were inoculated onto a 96-well plate at 100 μL/well. […] The cells were cultured for about 24 h and used for β-AR transfection (see below). The DNA sequences encoding β1-AR (P08588.2), β2-AR (NP_000015.1), or β3-AR (NP_000016.1) were cloned into a pCI-Neo expression vector (Promega, WI, USA). CHO-K1 cells expressing β1-AR, β2-AR, or β3-AR were constructed by transfection with the appropriate plasmid DNA (β1-, β2-, or β3-AR) using Lipofectamine 2000 (Life Technologies Japan Ltd., Tokyo, Japan), according to the manufacturer’s instructions. […] Lipofectamine was diluted with Opti-MEM (0.5 μL Lipofectamine/25 μL Opti-MEM) and incubated for 5 min at room temperature. Solutions containing plasmid DNA and Lipofectamine, respectively, were mixed in equal amounts and incubated for 20 min at room temperature. […] The transfected CHO-K1 cells were then cultured for about 24 h and used for the following experiments. Similar experiments were performed after reducing the amounts of transfected plasmid DNA to 0.05 and 0.025 μg.
(§2) Cells that had been cultured for about 24 h after transfection were subjected to cAMP assay.
(§3) In the cAMP assay, the half-maximal effective concentration (EC50) value was calculated for each agonist based on its concentration–response curve using GraphPad Prism 6.0 nonlinear regression analysis.

[2] = biological target: β1-AR; design: method as in PMID 22430195; conditions: binding assays; read-out: inhibition constant (Ki) β1-AR; cited from earlier work
[3] = tested on: β3-AR; conditions: recent study comparing vibegron and mirabegron; cited from earlier work
[4] = biological target: T1, human β1-AR (Homo sapiens, UniProt P08588); experiment: cAMP accumulation in CHO-K1 cells expressing human β1-AR; type: cell-based;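 also: cells transiently transfected with a β1-AR expression plasmid, seeded in 96-well plates and assayed for cAMP about 24 h after transfection across agonist concentration–response curves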
T1 construct: expressed in transfected cells; host or cells: CHO-K1 cells, transient transfection with pCI-Neo plasmid (Lipofectamine 2000)
Description: as §1, §2, §3

[5] = biological target: human β2-AR (Homo sapiens, UniProt P07550, E27Q/G16R); experiment: cAMP accumulation in CHO-K1 cells expressing human β2-AR; conditions: for Intrinsic activity β2-AR: isoproterenol max = 1.00
Description: as §1, §2, §3

[6] = unbound plasma concentrations at once-daily 50 mg clinical dose; type: in vivo, human; conditions: for Cmax,u (unbound maximum plasma concentration): calculated from Cmax and plasma-protein-binding rate; for Cmin,u (unbound minimum plasma concentration): calculated from Cmin and plasma-protein-binding rate
[7] = tested on: isolated rat bladder strips; design: method as in PMID 24213882; conditions: cited from earlier work
[8] = biological target: β2-AR; design: method as in PMID 22430195; conditions: binding assays; read-out: inhibition constant (Ki) β2-AR; cited from earlier work
[9] = 52-week, cited from earlier work
[10] = therapeutic doses, clinical trials; cited from earlier work
[11] = TF 0.05 μg/well, isoproterenol max = 1.00
[12] = TF 0.1 μg/well, 347 fmol/mg, concentration producing 50% of the maximal response induced by isoproterenol
[13] = CHO-K1, TF 0.1 μg/well plasmid DNA, cAMP accumulation, read-out: EC50 β1-AR
[14] = TF 0.025 μg/well, isoproterenol max = 1.00
[15] = TF 0.025 μg/well, read-out: EC50 β1-AR
[16] = TF 0.05 μg/well, read-out: EC50 β1-AR
[17] = TF 0.1 μg/well, maximal response of isoproterenol = 1.00
[18] = CHO-K1, TF 0.1 μg/well plasmid DNA, cAMP accumulation
[19] = EC50 β2-AR, CHO-K1, TF 0.1 μg/well plasmid DNA, cAMP accumulation

Sequence of human β3-AR (P13945 whole entry): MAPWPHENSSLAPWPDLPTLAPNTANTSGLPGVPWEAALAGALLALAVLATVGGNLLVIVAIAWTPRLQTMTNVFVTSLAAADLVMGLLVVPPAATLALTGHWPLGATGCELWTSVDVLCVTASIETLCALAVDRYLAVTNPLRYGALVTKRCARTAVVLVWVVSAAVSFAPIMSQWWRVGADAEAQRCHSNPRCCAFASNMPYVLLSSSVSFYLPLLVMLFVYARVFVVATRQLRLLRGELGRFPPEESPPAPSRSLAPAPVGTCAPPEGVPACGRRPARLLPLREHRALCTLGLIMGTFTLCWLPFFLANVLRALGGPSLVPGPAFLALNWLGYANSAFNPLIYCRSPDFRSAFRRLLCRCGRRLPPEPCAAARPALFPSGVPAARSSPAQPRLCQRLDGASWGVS
T1 sequence (P08588 whole entry): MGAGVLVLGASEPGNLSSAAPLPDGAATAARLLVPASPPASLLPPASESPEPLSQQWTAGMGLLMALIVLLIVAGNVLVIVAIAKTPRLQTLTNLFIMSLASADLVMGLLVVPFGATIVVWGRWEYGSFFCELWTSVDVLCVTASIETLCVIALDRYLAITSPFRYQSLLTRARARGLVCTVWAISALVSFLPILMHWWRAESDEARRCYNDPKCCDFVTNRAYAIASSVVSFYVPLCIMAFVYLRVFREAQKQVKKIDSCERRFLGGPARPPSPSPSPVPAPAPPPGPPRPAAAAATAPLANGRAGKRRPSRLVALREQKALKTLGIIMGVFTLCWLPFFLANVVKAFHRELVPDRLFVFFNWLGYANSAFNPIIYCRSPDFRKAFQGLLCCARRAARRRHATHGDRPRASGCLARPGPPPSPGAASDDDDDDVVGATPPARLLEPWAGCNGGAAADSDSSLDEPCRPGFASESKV

| SMILES | Iso50 ([1]; TF 0.025 μg/well, 116 fmol/mg) [nM] | Iso50 ([1]; TF 0.05 μg/well, 222 fmol/mg) [nM] | Intrinsic activity β3-AR [1, 11] | Iso50 [1, 12] [nM] | EC50 [4, 13] [nM] | Intrinsic activity β1-AR [4, 14] | EC50 [4, 15] [nM] | Intrinsic activity β1-AR [4, 11] | EC50 [4, 16] [nM] | Intrinsic activity β1-AR [4, 17] | EC50 [1, 18] [nM] | EC50 ([1]; TF 0.025 μg/well) [nM] | EC50 ([1]; TF 0.05 μg/well) [nM] | Intrinsic activity β3-AR [1, 17] | β3-AR selectivity vs β1-AR ([1]; TF 0.1 μg/well) | β3-AR selectivity vs β2-AR ([1]; TF 0.1 μg/well) | EC50 [5, 19] [nM] | EC50 ([5]; EC50 β2-AR, TF 0.025 μg/well) [nM] | EC50 ([5]; EC50 β2-AR, TF 0.05 μg/well) [nM] | Intrinsic activity β2-AR ([5]; TF 0.05 μg/well) | other results |
| --- | --- | --- | --- | --- | --- | --- | --- | --- | --- | --- | --- | --- | --- | --- | --- | --- | --- | --- | --- | --- | --- |
| CC(C)NC[C@H](O)c1ccc(O)c(O)c1 [Isoproterenol, (–)-isoprenaline (+)-bitartrate] | 78.0 ± 10.9 | 37.9 ± 6.40 | (0.96 ± 0.02) | 11.8 ± 1.78 | – | – | – | – | – | – | – | – | – | – | – | – | – | – | – | – | – |
| Nc1nc(CC(=O)Nc2ccc(CCNC[C@H](O)c3ccccc3)cc2)cs1 [Mirabegron, mirabegron] | 26.9 ± 7.51 | 4.45 ± 0.66 | (0.84 ± 0.04) | 1.32 ± 0.26 | 594 ± 122 | (0.25 ± 0.03) | > 10000 | (0.38 ± 0.02) | > 10000 | (0.59 ± 0.02) | 1.15 ± 0.24 | 4.17 ± 0.89 | 2.81 ± 0.6 | (0.94 ± 0.02) | 517 | 496 | 570 ± 235 | > 10000 | > 10000 | (0.31 ± 0.05) | Ki [2]: 383 nM; IA (Emax) [3]: 80.4%; Iso50 ([1]; TF 0.025 μg/well, 116 fmol/mg, listed as mirabegron): 26.9 nM; Intrinsic activity β3-AR ([1]; TF 0.05 μg/well, isoproterenol max = 1.00, listed as mirabegron): 0.84; Intrinsic activity β3-AR ([1]; TF 0.1 μg/well, maximal response of isoproterenol = 1.00, listed as mirabegron): 0.94; cAMP activity at Cmax,u [1]: about 53%; cAMP activity at Cmin,u [1]: about 27%; Cmax,u (unbound maximum plasma concentration) [6]: 20 nM; Cmin,u (unbound minimum plasma concentration) [6]: 3 nM; attenuation of bladder relaxant effect after pretreatment, washout and fresh addition [7]: did not produce such attenuation; Ki [8]: 977 nM |
| Cc1cc(OCC(=O)O)c(C)cc1CCN[C@@H](C)[C@H](O)c1ccc(O)cc1 [Ritobegron, ritobegron] | 943 ± 244 | 303 ± 60.7 | (1.00 ± 0.07) | 81.5 ± 15.4 | > 10000 | (0.04 ± 0.01) | > 10000 | (0.11 ± 0.02) | > 10000 | (0.33 ± 0.03) | 80.8 ± 12.6 | 1520 ± 950 | 398 ± 104 | (0.99 ± 0.02) | >124 | 28.1 | 2270 ± 1340 | > 10000 | > 10000 | (0.32 ± 0.05) | Iso50 ([1]; TF 0.025 μg/well, 116 fmol/mg, listed as ritobegron): 943 nM; Intrinsic activity β3-AR ([1]; TF 0.05 μg/well, isoproterenol max = 1.00, listed as ritobegron): 1.00; Intrinsic activity β3-AR ([1]; TF 0.1 μg/well, maximal response of isoproterenol = 1.00, listed as ritobegron): 0.99 |
| O=C(O)c1cccc(-c2cccc(NCCNC[C@H](O)c3cccc(Cl)c3)c2)c1 [Solabegron, solabegron] | 252 ± 78.4 | 119 ± 27.1 | (0.91 ± 0.10) | 31.0 ± 10.8 | 588 ± 105 | (0.25 ± 0.06) | > 10000 | (0.28 ± 0.04) | > 10000 | (0.60 ± 0.04) | 27.6 ± 9.08 | 83.6 ± 29 | 85.1 ± 5.84 | (0.96 ± 0.03) | 21.3 | >362 | > 10000 | > 10000 | > 10000 | (0.20 ± 0.02) | Iso50 ([1]; TF 0.025 μg/well, 116 fmol/mg, listed as solabegron): 252 nM; Intrinsic activity β3-AR ([1]; TF 0.05 μg/well, isoproterenol max = 1.00, listed as solabegron): 0.91; Intrinsic activity β3-AR ([1]; TF 0.1 μg/well, maximal response of isoproterenol = 1.00, listed as solabegron): 0.96 |
| O=C(Nc1ccc(C[C@@H]2CC[C@H]([C@H](O)c3ccccc3)N2)cc1)[C@@H]1CCc2nccc(=O)n21 [Vibegron] | 22.5 ± 14.5 | 3.74 ± 0.73 | (1.00 ± 0.03) | 1.26 ± 0.29 | > 10000 | (0.00 ± 0.00) | > 10000 | (0.02 ± 0.01) | > 10000 | (0.10 ± 0.01) | 1.26 ± 0.4 | 12.5 ± 2.41 | 3.83 ± 0.93 | (0.93 ± 0.05) | >7937 | >7937 | > 10000 | > 10000 | > 10000 | (0.09 ± 0.03) | IA (Emax) [3]: 99.2%; EC50 ([4]; TF 0.1 μg/well, read-out: EC50 in cells expressing β1-ARs): > 10000 nM; β1-AR agonist activity ([4]; cells TF 0.05 μg/well (245 fmol/mg)): no β1-AR agonist activity; attenuation of efficacy ([9]; 50 mg and 100 mg): not observed; vital signs (systolic blood pressure, diastolic blood pressure, and pulse) ([9]; supratherapeutic dose 100 mg): did not affect vital signs; incidence of increased blood pressure and hypertension [10]: does not affect the incidence of increased blood pressure and hypertension; Iso50 ([1]; TF 0.025 μg/well, 116 fmol/mg, listed as vibegron): 22.5 nM; Intrinsic activity β3-AR ([1]; TF 0.05 μg/well, isoproterenol max = 1.00, listed as vibegron): 1.00; β3-AR selectivity, higher than for β1-ARs ([1]; TF 0.1 μg/well): > 7937 fold; β3-AR selectivity, higher than for β2-ARs ([1]; TF 0.1 μg/well): > 7937 fold; Intrinsic activity β3-AR ([1]; TF 0.1 μg/well, maximal response of isoproterenol = 1.00, listed as vibegron): 0.93; cAMP activity at Cmax,u [1]: about 82%; cAMP activity at Cmin,u [1]: ~59%; EC50 ([5]; EC50 in cells expressing β2-ARs, TF 0.1 μg/well): > 10000 nM; β2-AR agonist activity ([5]; lowest β2-AR density 108 fmol/mg): no β2-AR agonist activity; Cmax,u (unbound maximum plasma concentration) [6]: 56 nM; Cmin,u (unbound minimum plasma concentration) [6]: 14 nM |
| CC(Cc1ccc(O)cc1)NCC(O)c1cc(O)cc(O)c1 (centres unmarked) [fenoterol] | – | – | – | – | – | – | – | – | – | – | – | – | – | – | – | – | – | – | – | – | attenuation of bladder relaxant effect after pretreatment, washout and fresh addition [7]: marked attenuation of the bladder relaxant effect |

Source: publication PMC10473532 (PLOS ONE, 2023)
